Several values for one entry are separate records, joined by “and”; a condition that tells them apart may be missing. Equal values may be shown once. Oligonucleotides are written 5' to 3', each unit as a sugar letter and its base; * is a phosphorothioate linkage, no mark a phosphodiester; rarer units and linkages stand in square brackets, end groups in braces. Plain capitals give the bases only. k = constrained ethyl (cEt); [5mC] = 5-methylcytosine; d = 2'-deoxy (DNA)
Columns and labels:
AR mRNA [1] = test: Antisense inhibition of human AR in HuVEC cells, single concentration (electroporation, qRT-PCR RTS3559); type: cell-based; settings: electroporation, approximately 24 hours, relative to untreated control
In short: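 HuVEC cells electroporated with antisense oligonucleotides at a single concentration. AR mRNA quantified by qRT-PCR using human primer-probe set RTS3559 and normalised to total RNA content by RIBOGREEN.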

AR mRNA [2] = test: Dose-dependent antisense inhibition of human AR in HuVEC cells (electroporation, qRT-PCR RTS3559, IC50); type: cell-based; settings: HuVEC, electroporation, approximately 16 hours
In short: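 HuVEC cells dosed with antisense oligonucleotides by electroporation and treated approximately 16 hours. AR mRNA quantified by real-time qPCR with primer probe set RTS3559 and normalised to total RNA by RIBOGREEN; IC50 from dose-response.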

[3] = Table 20, 500 nM oligonucleotide
[4] = Table 21, 500 nM oligonucleotide

Row | Substance | % inhibition (AR mRNA [1]; [3]) [%] | percent inhibition of AR, 3000.0 nM (AR mRNA [2]; Table 32) [%] | percent inhibition of AR, 46.9 nM (AR mRNA [2]; Table 32) [%] | percent inhibition of AR, 187.5 nM (AR mRNA [2]; Table 32) [%] | percent inhibition of AR, 750.0 nM (AR mRNA [2]; Table 32) [%] | IC50 (AR mRNA [2]; Table 32) [nM] | percent inhibition of AR, 46.9 nM (AR mRNA [2]; Table 33) [%] | percent inhibition of AR, 187.5 nM (AR mRNA [2]; Table 33) [%] | percent inhibition of AR, 750.0 nM (AR mRNA [2]; Table 33) [%] | percent inhibition of AR, 3000.0 nM (AR mRNA [2]; Table 33) [%] | IC50 (AR mRNA [2]; Table 33) [nM] | also measured
1 | 583864 (k[5mC]*kA*kG*dT*dG*d[5mC]*dT*d[5mC]*dT*dT*dG*d[5mC]*d[5mC]*kT*kG*k[5mC]; antisense) [compound 583864] | 46 | 85 |  |  |  |  |  |  |  |  |  | percent inhibition of AR, 187.5 nM (AR mRNA [2]; Table 32, 0.1875 µM): 49% and 47%; percent inhibition of AR, 750.0 nM (AR mRNA [2]; Table 32, 0.75 µM): 72% and 62%
2 | 583865 (kT*kT*k[5mC]*dA*dG*dT*dG*d[5mC]*dT*d[5mC]*dT*dT*dG*k[5mC]*k[5mC]*kT; antisense) [compound 583865] | 45 | 85 | 33 | 42 | 68 | 190 |  |  |  |  |  | 
3 | 583866 (kT*k[5mC]*kT*dT*d[5mC]*dA*dG*dT*dG*d[5mC]*dT*d[5mC]*dT*kT*kG*k[5mC]; antisense) [compound 583866] | 32 |  |  |  |  |  | 17 | 48 | 71 | 91 | 240 | 
4 | 583868 (kA*k[5mC]*kT*d[5mC]*dA*dG*d[5mC]*dA*dG*dT*dA*dT*d[5mC]*kT*kT*k[5mC]; antisense) [compound 583868] | 34 |  |  |  |  |  | 19 | 31 | 59 | 81 | 410 | 
5 | 583871 (kA*kT*kA*d[5mC]*dT*d[5mC]*dA*dG*d[5mC]*dA*dG*dT*dA*kT*k[5mC]*kT; antisense) [compound 583871] | 47 | 87 | 28 | 30 | 68 | 280 |  |  |  |  |  | 
6 | 583880 (kT*kT*kT*dG*dG*dT*dG*dT*dA*dA*d[5mC]*d[5mC]*dT*k[5mC]*k[5mC]*k[5mC]; antisense) [compound 583880] | 39 | 92 | 13 | 52 | 78 | 220 |  |  |  |  |  | 
7 | 583881 (k[5mC]*k[5mC]*kT*dT*dT*dG*dG*dT*dG*dT*dA*dA*d[5mC]*k[5mC]*kT*k[5mC]; antisense) [compound 583881] | 47 | 91 | 28 | 50 | 85 | 150 |  |  |  |  |  | 
8 | 583892 (k[5mC]*kA*kG*d[5mC]*d[5mC]*dT*dA*dG*dG*d[5mC]*dT*d[5mC]*dT*k[5mC]*kG*k[5mC]; antisense) [compound 583892] | 35 |  |  |  |  |  | 22 | 38 | 68 | 83 | 270 | 
9 | 583893 (kA*kG*k[5mC]*dA*dG*d[5mC]*d[5mC]*dT*dA*dG*dG*d[5mC]*dT*k[5mC]*kT*k[5mC]; antisense) [compound 583893] | 34 |  |  |  |  |  | 15 | 35 | 62 | 79 | 420 | 
10 | 583917 (kT*k[5mC]*kG*d[5mC]*dG*dA*d[5mC]*dT*d[5mC]*dT*dG*dG*dT*kA*k[5mC]*kG; antisense) [compound 583917] |  |  |  |  |  |  |  |  |  |  |  | % inhibition (AR mRNA [1]; [4]): 37%; percent inhibition of AR, 46.9 nM (AR mRNA [2]; Table 34): 6%; percent inhibition of AR, 187.5 nM (AR mRNA [2]; Table 34): 30%; percent inhibition of AR, 750.0 nM (AR mRNA [2]; Table 34): 50%; percent inhibition of AR, 3000.0 nM (AR mRNA [2]; Table 34): 70%; IC50 (AR mRNA [2]; Table 34): 640 nM
11 | 583919 (kG*kT*kA*dG*dT*d[5mC]*dG*d[5mC]*dG*dA*d[5mC]*dT*d[5mC]*kT*kG*kG; antisense) [compound 583919] |  |  |  |  |  |  | 27 | 60 | 85 | 91 | 140 | % inhibition (AR mRNA [1]; [4]): 55%
12 | 583920 (kT*kA*kG*dT*dA*dG*dT*d[5mC]*dG*d[5mC]*dG*dA*d[5mC]*kT*k[5mC]*kT; antisense) [compound 583920] |  |  |  |  |  |  | 11 | 16 | 50 | 72 | 760 | % inhibition (AR mRNA [1]; [4]): 42%

From USRE48461E1, “Modulation of androgen receptor expression” (Ionis Pharmaceuticals, Inc., priority 2012, dated 2021)
